Where “and” joins values, the source holds several entries; their conditions need not be identical. Equal entries are not always repeated. Where two headings read alike, the source gives them in different places.
Legend:
[1] = tested on: HIV-1RF; assay: XTT cytoprotection (cytopathicity) anti-HIV assay, CEM-SS cells; format: cell-based
Protocol: (§1) Initial anti-HIV screening was performed with CEM-SS cells and HIV-1RFusing the XTT cytoprotection assay as previously described (Weislow et al., J. National Cancer Inst. 81: 577-586, (1989)). HIV-1 isolates included common laboratory stains (RF, IIIB and MN), as well as a panel of HIV-1 clinical isolates (Cushman et al., J. Med. Chem. 37: 3040-3050, (1994)). The pyridone-resistant HIV-1A17 isolate (Nunberg et al., J. Virol., 65: 4887-4892 (1991)) was obtained from Emilio Emini at Merck Sharpe and Dohme Laboratories. Phytohemagglutinin-stimulated human peripheral blood lymphocytes (PBLs) and fresh monocyte-macrophage (Mono/MF) cultures were prepared and utilized in antiviral assays as previously described (Rice et al., Proc. Nat'l. Academy Science, USA 90: 9721-9724, (1993)); (Cushman et al., J. Med. Chem. 37: 3040-3050, (1994)). EC50 values for these cultures indicate the drug concentration that provided a 50% reduction in viral p24 production. […] The compounds can be synthesized according to the teachings of Singh et al., Sulfur Letters 8: 107-114, (1988). […] MT-2, MT-4, U1, HeLa-CD4-LTR-β-gal and 174xCEM cells were obtained from the AIDS Research and Reference Program (National Institute of Allergy and Infectious Disease, National Institutes of Health, Bethesda, Md. USA), as were the HIV-2MS and the AZT-resistant HIV-1G910-6 isolates.
(§2) Racemate and enantiomers of the cis-1,1-dioxo[1,2]dithiane-4,5-diol were synthesized and evaluated for antiviral activity in the XTT assay as described hereinabove.

[2] = target: T1, HIV-1 p7NC protein (Human immunodeficiency virus type 1 group M subtype B, UniProt P04591); assay: Trp37 zinc finger fluorescence assay (zinc ejection from p7NC); format: biochemical; details: for p7NC Trp37 Assay (RFU): 25 μM compound
T1 construct: recombinant HIV-1 p7NC protein
Protocol: Fluorescence measurements of the Trp^37 residue in the C-terminal zinc finger of the recombinant HIV-1 p7NC protein were performed as previously described (Rice et al., Science 270:1194, 1995). The p7NC protein was prepared at 20 μg/ml in 10 mM sodium phosphate buffer (pH 7.0), treated with 25 μM of each compound, then after indicated time intervals the samples were diluted 1/10 in 10 mM sodium phosphate buffer (pH 7.0) and the fluorescence intensity measured. The excitation and emission wavelengths utilized with the Shimadzu RF5000 spectrofluorimeter were 280 nm and 351 nm, respectively. In an alternate assay, the zinc-selective fluorescent probe N-(6-methoxy-8quinolyl-)-p-toluenesulfonamide (TSQ, Molecular Probes, Eugene, Oreg.) originally described by Fredrickson (J. Neurosci. Meth. 20:91, 1987) was utilized to measure zinc released from the p7NC protein in vitro. Briefly, 2 μM recombinant HIV-1 p7NC protein in 10 mM sodium phosphate buffer, pH 7.0, 10% glycerol was treated with 10 μM 624151 ([…] total volume in 96-well plates), and the time-dependent increase in fluorescence was measured on a Labsystems Fluoroskan II (360 nm excitation filter and 460 nm emission filter) over a period of 2 hours. Induction of alterations of p7NC proteins within intact virions involved treatment of HIV-1MN for 1 hour at 37° C. with 25 μM test compound. Samples were centrifuged 1 hour at 4° C. under 18,000×g to pellet the virus from the drug. Virus pellets were resolved by non-reducing SDS-PAGE and analyzed by immunoblot using monospecific rabbit antisera to the purified p7NC protein.
^b The percent decrease in RFU was calculated based on measurement of
the initial fluorescence of the p7NC protein before and 10 minutes after
treatment with the 25 μM of compound at ambient temperature.
The ability of 624151 to chemically interact with the zinc fingers of the HIV-1 p7NC protein was initially determined by a fluorescence assay (Rice et al., Science 270:1194-1197, (1995)) that measures a loss in intrinsic fluorescence of the tryptophan (Trp^37) residue in the second finger of the protein that occurs upon loss of zinc from the finger (Summers et al., Protein Sci. 1:563, 1992). […] As the 624151 modifies the zinc finger thiolates and the zinc is ejected over time, the metal is bound by the TSQ fluorochrome (FIG. 1(B)).
Sodium Phosphate buffer, pH 7.0 in 1 ml was treated with 25 μM of
compound. At indicated times, the mixture was diluted 1/10 and the
relative fluorescence units (RFU) measured in a Shimadzu RF5000
spectrofluorimeter with […] and Em = 351 mn. Following
loss of zinc from the Cterminal zinc finger, the Trp37 residue folds away
from the # aqueous environment and experiences a loss of fluorescence.

[3] = target: T2, HIV-1 integrase (Human immunodeficiency virus type 1 group M subtype B, UniProt P04585); assay: HIV-1 integrase activity; format: biochemical; details: Table 6
T2 construct: the purified HIV-1 protease and integrase enzymes

[4] = tested on: CEM-SS cells; assay: XTT assay, cytotoxicity (IC50), CEM-SS cells; format: cell-based
Protocol: as §1, §2

[5] = target: T3, HIV-1 p66-p51 RT (Human immunodeficiency virus type 1 group M subtype B, UniProt P04585); assay: reverse transcriptase activity assay; format: biochemical; details: nonphosphorylated control, in words
T3 construct: the purified HIV-1 p66-p51 RT enzyme
Protocol: The effects of 624151 on the in vitro activity of purified RT was determined by measurement of incorporation of [^3 H]TTP onto the poly(rA):oligo(dT)(rAdT) or poly(rC):oligo(dG)(rCdG) homopolymer template/primer systems. Samples (5 μL) were blotted onto DE81 paper, washed with 5% dibasic sodium phosphate as previously described (Buckheit et al., Antiviral Res. 21:247, (1993)), and then quantitated on a Packard Matrix 9600 dual beam counter. 3'-Azido-3'-deoxythymidine-5 '-triphosphateand UC38 (NSC 629243) served as positive controls for inhibition of RT. HIV-1 protease activity was quantitated by a reversed phase HPLC assay utilizing the […]Amide substrate (Multiple Peptide Systems, San Diego, Calif.) as previously described in Rice et al. (Proc. Nat'l. Academy of Science USA 9: 9721-9724, (1993)).

[6] = tested on: HIV-1RF; assay: effect of increasing multiplicity of infection, CEM-SS cells; format: cell-based; details: for EC50: Human immunodeficiency virus 1, CEM-SS
Protocol: Initial anti-HIV screening was performed with CEM-SS cells and HIV-1RFusing the XTT cytoprotection assay as previously described (Weislow et al., J. National Cancer Inst. 81: 577-586, (1989)). HIV-1 isolates included common laboratory stains (RF, IIIB and MN), as well as a panel of HIV-1 clinical isolates (Cushman et al., J. Med. Chem. 37: 3040-3050, (1994)). The pyridone-resistant HIV-1A17 isolate (Nunberg et al., J. Virol., 65: 4887-4892 (1991)) was obtained from Emilio Emini at Merck Sharpe and Dohme Laboratories. Phytohemagglutinin-stimulated human peripheral blood lymphocytes (PBLs) and fresh monocyte-macrophage (Mono/MF) cultures were prepared and utilized in antiviral assays as previously described (Rice et al., Proc. Nat'l. Academy Science, USA 90: 9721-9724, (1993)); (Cushman et al., J. Med. Chem. 37: 3040-3050, (1994)). EC50 values for these cultures indicate the drug concentration that provided a 50% reduction in viral p24 production. […] The compounds can be synthesized according to the teachings of Singh et al., Sulfur Letters 8: 107-114, (1988). The 4,5-cis-dihydroxy(1,1-dioxy-1,2,-dithiohexane) compound (NSC 624151) has been abbreviated as 624151 for convenience. MT-2, MT-4, U1, HeLa-CD4-LTR-β-gal and 174xCEM cells were obtained from the AIDS Research and Reference Program (National Institute of Allergy and Infectious Disease, National Institutes of Health, Bethesda, Md. USA), as were the HIV-2MS and the AZT-resistant HIV-1G910-6 isolates.

[7] = tested on: attachment of HIV-1 to fresh human PBLs; assay: virus attachment assay, HIV-1RF to PBLs (p24-based); format: cell-based; details: control; 30 min
Protocol: Binding of HIV-1RF to PBLs was measured by a p24-based assay (Rice, et al., Proc. Nat'l. Academy of Science USA 90: 9721-9724, (1993)). Briefly, 5×10^5 PBLs were incubated with a concentrated stock of virus for 30 min. at 37° C. in the absence or presence of various concentrations of 624151, the unbound virus was washed away, and the cell-associated virus was solubilized in 1% Triton X-100, 1% BSA and analyzed by the p24 antigen capture assay as previously described. The binding of gp120to CD4 was analyzed using an antigen capture ELISA. All steps of the assay were carried out according to the manufacturer's protocols.
^.dagger. Attachment of HIV1 to fresh human PBLs, binding of gp120 to […]

[8] = Human immunodeficiency virus 1, CEM-SS, Table 5, read-out: EC50 Mean
[9] = Homo sapiens, CEM-SS, Table 5, cytotoxicity, read-out: IC50 Mean

## O=S1(=O)C[C@H](O)[C@H](O)CS1 (single isomer, unassigned) [NSC 693194, (+)-cis-4,5-Dihydroxy-1,2-dithiane 1,1-dioxide]
[1]; Human immunodeficiency virus 1, CEM-SS, CEM-SS cells, HIV-1RF, read-out: XTT Assay EC50
  EC50: 16 µM
[1]; [8]
  EC50: 16.2 µM
[1]; Table 5, listed as 693194, read-out: EC50 Duplicates
  EC50: 18.6 µM and 13.7 µM
[2]; 0 min, listed as 693194
  p7NC Trp37 Assay (RFU): 280 RFU
[2]; 3 min, listed as 693194
  p7NC Trp37 Assay (RFU): 146 RFU
[2]; 10 min, listed as 693194
  p7NC Trp37 Assay (RFU): 75 RFU
[2]; 30 min, listed as 693194
  p7NC Trp37 Assay (RFU): 41 RFU
[3]
  inhibition of HIV-1 integrase: NI100
[4]; Homo sapiens, CEM-SS, Table 5, cytotoxicity, read-out: IC50 Duplicates
  IC50: 134 µM
[4]; [9]
  IC50: 134 µM
[4]; Homo sapiens, CEM-SS, cytotoxicity, CEM-SS cells, read-out: XTT Assay IC50
  IC50: 134 µM
[4]; Table 5, cytotoxicity, listed as 693194, read-out: IC50 Duplicates
  IC50: 133 µM

## O=S1(=O)C[C@H](O)[C@H](O)CS1 (single isomer, unassigned) [NSC 693195, (-)-cis-4,5-Dihydroxy-1,2-dithiane 1,1-dioxide]
[1]; CEM-SS cells, HIV-1RF, read-out: XTT Assay EC50
  EC50: 8.8 µM
[1]; Table 5, listed as 693195, read-out: EC50 Duplicates
  EC50: 9.04 µM and 8.64 µM
[1]; Table 5, listed as 693195, read-out: EC50 Mean
  EC50: 8.8 µM
[1]; in words
  EC50 relative to enantiomer or racemate: about half that of the (+) enantiomer
[2]; 0 min, listed as 693195
  p7NC Trp37 Assay (RFU): 279 RFU
[2]; 3 min, listed as 693195
  p7NC Trp37 Assay (RFU): 117 RFU
[2]; 10 min, listed as 693195
  p7NC Trp37 Assay (RFU): 69 RFU
[2]; 30 min, listed as 693195
  p7NC Trp37 Assay (RFU): 45 RFU
[3]
  inhibition of HIV-1 integrase: NI100
[4]; Table 5, cytotoxicity, listed as 693195, read-out: IC50 Duplicates
  IC50: 129 µM and 135 µM
[4]; Table 5, cytotoxicity, listed as 693195, read-out: IC50 Mean
  IC50: 132 µM
[4]; cytotoxicity, CEM-SS cells, read-out: XTT Assay IC50
  IC50: 132 µM

## Cc1cn([C@H]2C[C@H](N=[N+]=[N-])[C@@H](CO)O2)c(=O)[nH]c1=O [AZT, 3'-azido-3'-deoxythymidine]
[1]; Human immunodeficiency virus 1, CEM-SS, Table 5, read-out: EC50 Duplicates
  EC50: 0.0054 µM
[1]; [8]
  EC50: 0.0056 µM
[1]; Table 5, read-out: EC50 Duplicates
  EC50: 0.0057 µM
[5]
  inhibition of RT activity: not inhibitory
[2]; FIG. 1(A), 25 μM, in words
  loss of Trp37 fluorescence of p7NC: not by AZT control
[6]; MOI 0.01
  EC50: 0.019 µM
[6]; MOI 0.02
  EC50: 0.024 µM
[6]; MOI 0.04
  EC50: 1.57 µM
[6]; MOI 0.08
  EC50: > 10 µM
[6]; MOI 0.16
  EC50: > 10 µM
[6]; MOI 0.32
  EC50: > 10 µM
[6]; lowest MOI
  EC50: 0.0189 µM
[6]; in words
  effect of increasing the MOI on activity: completely inactive after only a six-fold increase in the MOI
[4]; [9]
  IC50: > 1 µM

## dextran sulfate [reference compound]
[1]; Table 5
  EC50 Mean: 0.76 µg/mL
[7]
  virion binding ID50: 1.8 µg/mL
[4]; Table 5, cytotoxicity
  IC50 Duplicates: > 95 µg/mL
  IC50 Mean: > 95 µg/mL
